Results on 87 molecules are retold here after a melting point compilation (Tetko et al.; mined from patent text by program, amines drawn as free bases though some values may be those of a salt).

The molecule `COc1cc(Cn2c(-c3ccc(O)cc3)c(C)c3cc(O)ccc32)ccc1OCCN1CCCCCC1` registered a melting point of 142 to 146 °C. `CC1CCN(c2nc(Nc3cc(C4CC4)n[nH]3)c3ccccc3n2)CC1` had a melting point of 190 °C. Next, `Clc1ccc(C=Cc2ccc(CBr)cc2)cc1`: 130 to 132 °C; `Nc1cccc(C(=O)c2cc3c(Oc4ccc(Cl)cc4)cncc3s2)c1`: 174 to 178 °C. Molecule `C#CC(O)(CO)C(O)c1ncnc2c1ncn2Cc1ccc2c(c1)Nc1nccnc1S2` (configuration not stated) gave a melting point of 79 to 84 °C. Next, `CC(=O)ON=C(N)c1ccc(C(=O)NCCCNC(=O)[C@@H]2CCCN2S(=O)(=O)c2ccc(Cl)c(COc3cccn4cc(C)nc34)c2Cl)cc1`: 105 to 107 °C; `CN(C)CNS(=O)(=O)c1ccc(-c2cnn(Cc3ccc(F)cc3F)c(=O)c2-c2ccc(F)cc2)cc1`: 193 to 195 °C; `COC(=O)CCc1cc2cc(Cl)ccc2n1S(=O)(=O)c1cccc(OC)c1`: 106 to 109 °C. Next, `Cc1c(C(=O)NCc2ccc3c(Br)c(O)ccc3c2)oc2ccccc12`: 194 to 197 °C; `CNC(=O)OCc1c(COC(=O)NC)c2n(c1C)Cc1ccccc1C2`: 174 to 176 °C. Regarding `C=C(C)C(=O)NC1=CC(O)(C(C)=O)C(C(=O)O)C=C1` (configuration not stated), the melting point was found to be 178 °C. In turn, `CC(Oc1ccc(Oc2ccc(F)cc2)cc1)(C(=O)O)c1ccccc1` (configuration not stated) yielded a melting point of 113 to 115 °C. As for `CCN(CC)S(=O)(=O)c1ccc(C#CC(C)(O)C(F)(F)F)cc1` (configuration not stated), the melting point lay in the range of 140 to 144 °C. `CC(=O)Nc1nc(NCC(O)CO)c(Cl)nc1[N+](=O)[O-]` (configuration not stated) displayed a melting point of 130 to 131 °C.

Consider `COc1ccc(S(=O)(=O)N2C(=O)C(c3ccccc3OC)(N3C[C@H](OCC(=O)NC(C)(CO)CO)C[C@H]3C(=O)N(C)C)c3cc(Cl)ccc32)c(OC)c1` (some centres not stated), for which the melting point stood at 154 °C.

`Oc1cc2c(cc1-c1nc3cc(Cl)ccc3o1)oc1ccccc12`: the melting point was in the range of 244 to 246 °C.

For the molecule `COc1ccc(-n2nc(Sc3ccc(C(C)(C)C)cc3)c(C)c(C#N)c2=O)cc1`, the melting point is 186 to 188 °C. Next, `COc1ccc(/C=C(\C#N)c2ccc(Cl)c(Cl)c2)cc1OC1CCCC1`: 152 to 154 °C; `CCCCC(Cc1ccc(OCc2ccccc2)cc1)(C(=O)OCC)C(=O)OCC`: 73 °C; `N#CC(Cl)Cc1cccc([N+](=O)[O-])c1` (configuration not stated): 90 °C. The molecule `CC(C)Nc1nc(-n2cc(C(=O)O)c(=O)c3cc(F)c(F)c(Cl)c32)c(F)cc1F` displayed a melting point of 226 to 230 °C.

The molecule `CCN1C(=O)C(C)(C)C(=O)N(C)c2cc(CN(CCn3ccc4oc(C)cc4c3=O)Cc3cc(C)n(C)n3)ccc21` registered a melting point of 138 to 139 °C. Next, `CC(C)OC(=O)c1cc(Cl)c(Cl)c(-c2ccccc2)n1`: 94 to 96 °C; `C#CCCN1C(=O)c2cccc3cccc(c23)C1=O`: 191 to 193 °C; `O=C(O)CCC(=NO)c1ccc(-c2cccc(F)c2)cc1`: 155 to 157 °C. Next, `O=C(Cn1c(-c2ccc(Cl)cc2)nc2cccnc21)NCc1ccccc1`: 200 °C; `C[C@]1(COc2ccc(N3CCN(CC=Cc4ccc(Cl)c(Cl)c4)CC3)cc2)Cn2cc([N+](=O)[O-])nc2O1`: 205 to 206 °C; `CC(C=O)C(C(=O)O)c1ccc(Cl)c(Cl)c1` (configuration not stated): 124 to 126 °C. Next, `CC(CNc1ccc(Cl)cc1[N+](=O)[O-])SC#N` (configuration not stated): 69 to 70 °C; `COc1ccc(-c2csc(Nc3cnccn3)n2)cc1OC`: 205 to 207 °C; `CNC(=O)N(O)C(C)c1ccc(C#Cc2ccccc2)cc1` (configuration not stated): 138 to 141 °C.

In turn, `COc1c(-n2cccc2)cc(CC(C#N)=CNc2ccccc2)cc1-n1cccc1` yielded a melting point of 152 °C. For the molecule `N#CC(N)COc1ccccc1` (configuration not stated), the melting point was found to be 65 °C. Turning to `CC(C)c1c(Sc2cc(Cl)cc(Cl)c2)nc(COCCO)n1C`, the melting point is 67 to 68 °C. Next, `Cc1cc(=O)c2cc(Oc3ccccc3)c(NS(C)(=O)=O)cc2o1`: 186 to 187 °C.

Take `CC(C)c1nc(CCCOc2ncccc2CC(=O)O)c(Cc2ccc(Cl)cc2Cl)s1`: the melting point lay within 106 to 107 °C.

For the molecule `CCOC(=O)COc1cccc2c1OCC2=O`, the melting point is 89 to 90 °C. Next, `CCOC(=O)Cn1c2ccc(Cl)ccc-2c(C(=O)OCC)c1=O`: 177 to 179 °C; `CCOC(=O)C1(Cc2ccc(OC)c(OC)c2)C(=S)NCC1c1ccc(OC)c(OC)c1` (configuration not stated): 166 to 169 °C; `Cc1c(Nc2c(C#N)cnc3sc(C(=O)N4CCCC4)cc23)ccc2[nH]ccc12`: 256 °C. Next, `COc1ccc2cc(-c3ccc(OCC(O)CNC(C)C)cc3)n(C)c(=O)c2c1` (configuration not stated): 140 to 142 °C. In the case of `CCCOc1ccccc1-c1nc2nc(NC3CC3)ncc2c(=O)[nH]1`, the melting point came to 208 °C.

Take `O=S=NNc1cccc(C(F)(F)F)c1`: the melting point amounted to 100 °C. `O=[N+]([O-])C=C1NCCN1Cc1ccc(Cl)nc1` came in with a melting point of 160 to 161 °C. Next, `Cn1cc(SC(C)(C)C)c(=O)c(-c2ccc(Cl)c(C(F)(F)F)c2)c1`: 138 to 142 °C.

As for `CCCCc1oc2ccccc2c1Cc1cc(I)c(OCCN(CC)CC)c(I)c1`, the melting point was 80 to 81 °C. In turn, `CC(=O)N1CCC(CCCC(=O)c2ccc(F)cc2)CC1` had a melting point of 77 to 78 °C.

As to `C[C@@H](CO)CCn1c(C(=O)NCc2cc(C(F)(F)F)cc(C(F)(F)F)c2)c(-c2ccc(Cl)cc2)c2cccnc2c1=O`, the melting point lay within 259 to 261 °C. `COc1ccc(N2CCN(Cc3n[nH]c4c(I)cccc34)CC2)cc1` registered a melting point of 185 to 186 °C.

`CSc1cc(SC)c2ccc3c(SC)cc(SC)c4ccc1c2c43` gave a melting point of 275 to 280 °C. Next, `CCc1c(-c2ccc(O)cc2)c2cc(COCCCN3CCCCC3)c3cccc1n32`: 176 to 178 °C. Next, `CCC1CC(=O)N(Cc2cccc(NC(C)=O)c2)N=C1c1ccc(OC)c(OC2CCCC2)c1` (configuration not stated): 70 °C; `COc1ccc(N2CCOCC2)c2sc(NC(=O)N(C)C3CCCCCC3)nc12`: 198 to 200 °C; `CC(C)CC(NC(=O)c1ccc2c(N)cccc2n1)C(=O)NCC#N` (configuration not stated): 190 to 194 °C.

In turn, `O=C(CS(=O)(=O)c1ccccc1)c1ccnc(Cl)c1` came in with a melting point of 124 to 126 °C. Next, `NS(=O)(=O)c1cc2nc[nH]c2cc1Cl`: 244 °C; `COC1(c2cc(F)cc(Sc3ccc4c(c3)n(C)c(=O)n4C)c2)CCOCC1`: 128 to 130 °C. Next, `Cc1ccc(C(=O)N2CCc3nnc(NN=C4CCCCC4)cc3C2)cc1`: 208 to 210 °C; `CCn1cc(C(=O)NCc2ccc(Cl)cc2)c(=O)c2cc(CCl)sc21`: 199 to 200 °C; `O=C(C1CCCC1)N1CCc2cc(S(=O)(=O)N3CCN(c4cccc(Cl)c4)CC3)ccc21`: 166 to 167 °C.

Take `O=C1CCC2=C1C(Cc1ccccc1)(Cc1ccccc1)c1ccccc12`: the melting point worked out at 155 °C. Next, `Cc1cccc(COc2cccc(OCc3ccc(-c4ccccc4)cn3)c2)c1C(=O)O`: 80 to 83 °C. Next, `CCOC(=O)NNc1cccc(Cl)n1`: 139 to 141 °C; `Cc1nc2cc(CCCN3C(=O)c4ccccc4C3=O)ccc2s1`: 126 °C. Next, `N#Cc1cncc(-c2ccc(OC[C@@H](N)Cc3ccccc3)cc2)c1Nc1cccc2[nH]ccc12`: 83 to 85 °C; `O=C1CNC(=O)C(Cc2cccc(NCc3ccccc3)c2)N1` (configuration not stated): 160 to 161 °C.

As for `CON(C)C(=O)c1ocnc1C`, the melting point lay within 59 to 60 °C. Next, `CCCCCCCCSc1ccc(-c2ncc(CCCCC)cn2)cc1`: 43 °C; `Nc1cccc2c1C1CC3(CCN1C2=O)OCCO3` (configuration not stated): 76 °C.

`CCOc1ccccc1C(O)c1cc(Cl)ccc1N` (configuration not stated) yielded a melting point of 80 to 81 °C.

`COC(=O)C(=O)c1c(F)cc(OCCOc2ccc3ccccc3c2)cc1F` had a melting point of 130 to 131 °C. Next, `Nc1cc(-c2nnc(CCc3cccc(C(F)(F)F)c3)o2)ccn1`: 161 to 163 °C; `CN1CCC(=C2c3ccccc3CCc3ccc(CO)cc32)CC1`: 178 to 181 °C; `CCOc1cc2cc(OC)c(OC)cc2c(Cc2ccc(OC)c(OC)c2)n1`: 110 to 112 °C. Next, `Cc1c(C(=O)Nc2ccc(OCCCN3CCOCC3)c(C#N)c2)cnn1-c1ccc(Cl)cc1`: 155 to 157 °C; `CC(C)(C)c1ccc(-c2ccc(N3CCCN(c4ccc(-c5ccc(C(C)(C)C)cc5)cn4)CC3)nc2)cc1`: 268 to 270 °C. Next, `O=C(N[C@H]1CC[C@H](CCN2CCN(c3nccc4c3OCC4)CC2)CC1)C1(O)CC1`: 248 °C; `O=C1C(=Cc2ccc(O)c(CO)c2)Cc2ccccc21`: 194 to 195 °C; `CCOCC(=NO)C(C)(C)NCCCNC(C)(C)C(Cn1ccnc1[N+](=O)[O-])=NO`: 122 to 123 °C. In the case of `COc1ccc(S(=O)(=O)C(C)(CCCCN2C(=O)c3ccccc3C2=O)C(=O)NO)cc1` (configuration not stated), the melting point lay in the range of 146 to 148 °C. Next, `O=C(c1cccs1)c1cnn2c(-c3cccc(NCCc4ccccc4)c3)ccnc12`: 118 to 120 °C; `COc1c(Cl)ccc(-c2nc(C(=O)NOC3CCCCO3)c(Cl)c(N)c2F)c1F` (configuration not stated): 177 to 180 °C. Next, `CC(=O)N1N=C(c2ccc(NC(=O)CCl)cc2)c2cc3c(cc2CC1C)OCO3` (configuration not stated): 139 to 140 °C; `O=C(NC(=O)c1ccc([N+](=O)[O-])cc1Cl)Nc1ccc(Cl)c(Cl)c1`: 280 °C; `CC(=O)Nc1cc(F)ccc1O`: 185 to 186 °C.

In the case of `COc1ccc(N2CCN(n3ccnc3)CC2)cc1`, the melting point is 159 °C. Next, `NS(=O)(=O)Oc1ccc2cc(C3CCCCC3)sc2c1`: 128 °C.

Usually melting point stands for the temperature of the solid-liquid transition.
